These results are taken from US10934297B2, “5-heteroaryl substituted indazole-3-carboxamides and preparation and use thereof” (Samumed, LLC, priority 2018, dated 2021).

Test [1] relates to SW480 colon carcinoma cells. Briefly: Cell viability assay (CellTiter-Glo) in SW480 colon carcinoma cells. It is filed as cell-based, human. The conditions noted are these: Homo sapiens, 96 h, four days. The method, boiled down:
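Viability was taken from CellTiter-Glo ATP luminescence, read about 12 min after reagent addition, relative to DMSO controls. The cells were Sp5-Luc reporter SW480 colon carcinoma cells, 2,000/well in 1% FBS DMEM, exposed to compound for four days at 37 °C.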
(In general: In ATP-based viability assays light output follows the ATP content of the culture.)

Test [2] concerns Wnt activity (Sp5-Luc reporter in SW480 cells). Briefly: Screening assay for Wnt activity: Sp5-Luc reporter gene assay in SW480 colon carcinoma cells. Format: cell-based, human. The conditions noted are these: Homo sapiens, 36 to 48 hours. In a few lines:
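EC50 values come from a variable-slope four-parameter fit of luminescence normalized to DMSO-only wells. The read-out follows 36–48 h incubation at 37 °C, 5% CO2, in DMEM containing 1% fetal bovine serum. Cells are hygromycin-selected SW480 stably expressing firefly luciferase under a Wnt-responsive Sp5 promoter (eight TCF/LEF sites).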
A general note: In a reporter assay the amount or activity of a reporter protein is the signal.

For test [3], the system named is primary human fibroblasts derived from IPF patients (LL29 cells). Briefly: Inhibition of the fibrotic process: αSMA staining in TGF-β1 treated LL29 fibroblasts. It is filed as cell-based. Particulars: Homo sapiens, Fibroblast; for EC50: 96 h, LL29 cells, TGF-β1 20 ng/mL, 4 days, % αSMA positive cells; for inhibition at 10 µM: read-out: percent inhibition at 10 μM. In a few lines:
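LL29 fibroblasts from IPF patients, in F12 medium with 1% FBS, treated with TGF-β1 plus compound; TGF-β1 with DMSO as positive control, DMSO alone as negative control. After 4 days' incubation, SYTOX green nucleic acid stain added at 1 μM final, 30 min at room temperature.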

Another test concerns the target DYRK1A kinase (Homo sapiens (Human), UniProt Q13627). Briefly: DYRK1A kinase assay (Ser/Thr 18 peptide Z-lyte FRET). Format: biochemical. The conditions noted are these: read-out: EC50 (method: IC50). In a few lines: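 Kinase reactions with compound ran 1 h at room temperature in duplicate, and development reagent was then added for another hour.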
Test [4] concerns primary human mesenchymal stem cells (hMSCs). Briefly: Tenocyte differentiation assay (SCXA-positive cells) in hMSCs. The conditions noted are these: for EC50: Homo sapiens, Mesenchymal stem cells, 96 h, hMSCs, 4 days, SCXA positive cells; for percent in parentheses under EC50 >100: given for EC50 >100 μM, meaning not defined in this example. Format: cell-based. The source says:
Representative compounds were screened using primary human mesenchymal stem cells (hMSCs) to determine their ability to induce tenocyte differentiation (process by which tendon is developed).
Primary human mesenchymal stem cells (hMSCs) were purchased from Lonza (Walkersville, Md.) and expanded in Mesenchymal Stem Cell Growth Media (Lonza). Cells between passage 3 and 6 were used for the experiments.
Cells were fixed using 4% formaldehyde (Electron Microscopy Sciences), and stained with anti-Sclerasis (anti-SCXA) antibodies (Abgent, San Diego, Calif.) [Webb S., et.al., Retinoic acid receptor signaling preserves tendon stem cell characteristics and prevents spontaneous differentiation in vitro, Stem Cell Research & Therapy 2016, 7:45] overnight at 4° C. […] Number of cells positive for SCXA in each well was quantified using the CellInsight CX5. Data was normalized to the average of 12 DMSO treated wells on the same plate using Dotmatics Studies module. The normalized averages (fold change over DMSO) of 3 replicate wells for each compound concentration were calculated. Due to solubility limitations of some of the compounds, values for higher doses were manually corrected and curve fitting and EC50 determinations were performed using Dotmatics Studies.

For a further test, the system named is IL-6. Nature of the test: IL-6 inhibition in LPS-stimulated human peripheral blood mononuclear cells (HTRF). Format: cell-based. Particulars: Homo sapiens, PBMC; for EC50: huPBMCs, LPS 50 ng/mL, 22 hours, IL-6 HTRF; for inhibition at 10 µM: read-out: percent inhibition at 10 μM. The method, boiled down: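 HTRF 665/620 nm ratio, read after 3 h antibody incubation at room temperature, quantified IL-6 released by fresh human PBMCs (1×10e6 cells/mL, 1% FBS-RPMI). The cells got compound, then 50 ng/mL LPS at 2 h, followed by a further 22 h at 37° C. EC50 came from DMSO-normalized readings run in duplicate.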

The target of another test is GSK3β kinase (Homo sapiens (Human), UniProt P49841). Briefly: GSK3β kinase assay (Ser/Thr 09 peptide Z-lyte FRET). It is filed as biochemical. The conditions noted are these: read-out: EC50 (method: IC50). The method, boiled down: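 Non-radioactive Z-lyte FRET read-out, kinase activity expressed as coumarin/fluorescein emission ratio. Compounds incubated with the reaction mixture one hour at room temperature in duplicate, then development buffer added for another hour. IC50 from non-linear regression of dose-response curves.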

Structures are written as SMILES.

Chain of GSK3β kinase (P49841 whole entry): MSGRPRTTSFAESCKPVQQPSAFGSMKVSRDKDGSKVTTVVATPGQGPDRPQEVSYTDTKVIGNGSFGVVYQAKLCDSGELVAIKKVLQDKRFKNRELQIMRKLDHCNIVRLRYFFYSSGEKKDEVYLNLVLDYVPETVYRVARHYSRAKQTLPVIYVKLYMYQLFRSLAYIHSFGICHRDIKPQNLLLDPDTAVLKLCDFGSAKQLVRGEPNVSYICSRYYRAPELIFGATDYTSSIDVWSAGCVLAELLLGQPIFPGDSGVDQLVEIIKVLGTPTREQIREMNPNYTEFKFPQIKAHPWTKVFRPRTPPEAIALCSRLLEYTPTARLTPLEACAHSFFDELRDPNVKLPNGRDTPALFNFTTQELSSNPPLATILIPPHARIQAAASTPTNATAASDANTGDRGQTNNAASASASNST

For the compound `Cc1ncc(-c2ccc3[nH]nc(C(=O)N[C@@H](C)C(F)(F)F)c3c2)n1C` [Compound 131, (S)-5-(1,2-Dimethyl-1H-imidazol-5-yl)-N-(1,1,1-trifluoropropan-2-yl)-1H-indazole-3-carboxamide], the EC50 – broadly, the midpoint of the concentration-response curve – is 3040 nM in test [1]; greater than 10000 nM in test [2]; 4490 nM in test [3]; 2770 nM in test [4]; greater than 10000 nM in the test with IL-6. Moreover, the 50% inhibitory concentration (IC50) (commonly the concentration that inhibits the measured activity by half) was determined as 220 nM at DYRK1A kinase and 27 nM on GSK3β kinase. Besides, the inhibition (in general, the drop in the measured response relative to a control, in per cent) at 10 µM in the test with IL-6 is 15.1%.
Consider `CC[C@H](NC(=O)c1n[nH]c2ccc(-c3cnc(C)n3C)cc12)C(F)(F)F` [Compound 132, (S)-5-(1,2-Dimethyl-1H-imidazol-5-yl)-N-(1,1,1-trifluorobutan-2-yl)-1H-indazole-3-carboxamide], for which the EC50 was greater than 10000 nM in test [1]; greater than 10000 nM in test [2]; greater than 10000 nM in test [3]; greater than 100000 nM in test [4]; greater than 10000 nM in the test with IL-6. Further, the figures for the inhibition at 10 µM (in test [3]; in the test on IL-6) were 48.8% and 12.7%, respectively. The IC50 at DYRK1A kinase was 453 nM; on GSK3β kinase, 106 nM. Also, the “percent in parentheses under EC50 >100” value in test [4] was “(26.5%)”.
Take `Cc1ncc(-c2ccc3[nH]nc(C(=O)N[C@@H](C(C)C)C(F)(F)F)c3c2)n1C` [Compound 133, (S)-5-(1,2-Dimethyl-1H-imidazol-5-yl)-N-(1,1,1-trifluoro-3-methylbutan-2-yl)-1H-indazole-3-carboxamide]: the EC50 was greater than 10000 nM in test [1]; greater than 10000 nM in test [2]; greater than 10000 nM in test [3]; greater than 100000 nM in test [4]; greater than 10000 nM with IL-6. The figures for the inhibition at 10 µM (in test [3]; in the test with IL-6) were 35.8% and 20.2%, respectively. Also, the IC50 at DYRK1A kinase turned out to be 930 nM; at GSK3β kinase, 1350 nM. In test [4], the “percent in parentheses under EC50 >100” value is on record as “(15.8%)”.
For `Cc1ncc(-c2cc(F)c3[nH]nc(C(=O)N[C@@H](C)C(F)(F)F)c3c2)n1C` [Compound 134, (S)-5-(1,2-Dimethyl-1H-imidazol-5-yl)-7-fluoro-N-(1,1,1-trifluoropropan-2-yl)-1H-indazole-3-carboxamide], the EC50 is greater than 10000 nM in test [1]; greater than 10000 nM in test [2]; 1070 nM in test [3]; greater than 100000 nM in test [4]; greater than 10000 nM in the test with IL-6. The IC50 on DYRK1A kinase was found to be 482 nM; at GSK3β kinase, 46 nM. Besides, the “percent in parentheses under EC50 >100” value in test [4] is given as “(38.8%)”. In the test on IL-6, the inhibition at 10 µM came to 8.1%.
Consider `C[C@H](NC(=O)c1n[nH]c2c(F)cc(-c3cnn(C)c3)cc12)C(F)(F)F` [Compound 135, (S)-7-Fluoro-5-(1-methyl-1H-pyrazol-4-yl)-N-(1,1,1-trifluoropropan-2-yl)-1H-indazole-3-carboxamide], for which the EC50 in test [1] is greater than 10000 nM; in test [2], greater than 10000 nM; in test [3] it was greater than 10000 nM; in test [4] it was greater than 100000 nM; in the test with IL-6 it was greater than 10000 nM. Further, the IC50 came out at 439 nM on DYRK1A kinase and 43 nM at GSK3β kinase. For the same compound, the “percent in parentheses under EC50 >100” value in test [4] was “(16.1%)”. The inhibition at 10 µM in the test on IL-6 was determined as 50.6%.
In the case of `Cn1cc(-c2ccc3[nH]nc(C(=O)NC45CC6CC(CC(C6)C4)C5)c3c2)cn1` [Compound 137, N-((3s,5s,7s)-Adamantan-1-yl)-5-(1-methyl-1H-pyrazol-4-yl)-1H-indazole-3-carboxamide], the EC50 was 5220 nM in test [1]; 4240 nM in test [2]; 2090 nM in test [3]; 2480 nM in test [4]; greater than 10000 nM in the test with IL-6. Also, the IC50 on DYRK1A kinase is 8290 nM; on GSK3β kinase, 1340 nM.
On to `Cc1coc(NC(=O)c2n[nH]c3cc(F)c(-c4cnn(C5CCN(C)CC5)c4)cc23)n1` [Compound 138, 6-Fluoro-N-(4-methyloxazol-2-yl)-5-(1-(1-methylpiperidin-4-yl)-1H-pyrazol-4-yl)-1H-indazole-3-carboxamide], for which the concentration giving a half-maximal response (EC50) turned out to be 105 nM in test [1]; 125 nM in test [2]; 435 nM in test [3]; 4920 nM in test [4]; 2730 nM in the test on IL-6. The IC50 on DYRK1A kinase came to 6 nM; at GSK3β kinase, 193 nM.
Turning to `Cn1cc(-c2ccc3[nH]nc(C(=O)Nc4cnn(C5CCNCC5)c4)c3c2)cn1` [Compound 140, 5-(1-Methyl-1H-pyrazol-4-yl)-N-(1-(piperidin-4-yl)-1H-pyrazol-4-yl)-1H-indazole-3-carboxamide], the EC50 in test [1] was 2600 nM; in test [2], 713 nM; in test [3] it was 301 nM; in test [4], greater than 100000 nM; with IL-6, 1250 nM. Further, the figures for the IC50 at DYRK1A kinase and on GSK3β kinase were 2 nM and 5 nM, respectively. Besides, the “percent in parentheses under EC50 >100” value in test [4] is “(12.6%)”.
Regarding `CN1CCC(n2cc(NC(=O)c3n[nH]c4ccc(-c5cnn(C)c5)cc34)cn2)CC1` [Compound 141, 5-(1-Methyl-1H-pyrazol-4-yl)-N-(1-(1-methylpiperidin-4-yl)-1H-pyrazol-4-yl)-1H-indazole-3-carboxamide], the EC50 in test [1] turned out to be 64 nM; in test [2], 79 nM; in test [3], 103 nM; in test [4], 930 nM; with IL-6, 382 nM. Also, the IC50 on DYRK1A kinase is 1 nM; on GSK3β kinase, 4 nM.
For the compound `CN1CCC(n2cc(-c3ccc4[nH]nc(C(=O)Nc5cnn(C)c5)c4c3)cn2)CC1` [Compound 142, N-(1-Methyl-1H-pyrazol-4-yl)-5-(1-(1-methylpiperidin-4-yl)-1H-pyrazol-4-yl)-1H-indazole-3-carboxamide], the EC50 in test [1] was 116 nM; in test [2], 130 nM; in test [3], 115 nM; in test [4], greater than 100000 nM; in the test with IL-6, 1100 nM. The IC50 at DYRK1A kinase came out at 8 nM; at GSK3β kinase, 208 nM. Also, the “percent in parentheses under EC50 >100” value in test [4] was “(38.2%)”.
As for `Cc1cc(NC(=O)c2n[nH]c3ccc(-c4cnn(C5CCN(C)CC5)c4)cc23)sn1` [Compound 143, N-(3-Methylisothiazol-5-yl)-5-(1-(1-methylpiperidin-4-yl)-1H-pyrazol-4-yl)-1H-indazole-3-carboxamide], the EC50 in test [1] was 60 nM; in test [2], 90 nM; in test [3], 207 nM; in test [4], greater than 100000 nM; in the test on IL-6 it was 1410 nM. Besides, the IC50 on DYRK1A kinase was determined as 5 nM; on GSK3β kinase, 52 nM. In addition, the “percent in parentheses under EC50 >100” value in test [4] was “(23.0%)”.
As to `Cc1cnc(NC(=O)c2n[nH]c3ccc(-c4cnn(C5CCN(C)CC5)c4)cc23)s1` [Compound 144, 5-(1-(1-Methylpiperidin-4-yl)-1H-pyrazol-4-yl)-N-(5-methylthiazol-2-yl)-1H-indazole-3-carboxamide], the EC50 in test [1] was 1300 nM; in test [2] it was greater than 10000 nM; in test [3] it was 2190 nM; in test [4] it was greater than 100000 nM; in the test on IL-6 it was greater than 10000 nM. In addition, the IC50 on DYRK1A kinase worked out at 8 nM; on GSK3β kinase, 6440 nM. In addition, the “percent in parentheses under EC50 >100” value in test [4] is recorded as “(27.4%)”. Also, the inhibition at 10 µM in the test with IL-6 was 49%.
